Laboratory results taken from patent US12006330B2, “Substituted macrocyclic compounds and related methods of treatment” (Alkermes, Inc., priority 2020, dated 2024).

How the values were obtained:
human hepatocytes = assay: Hepatocytes stability assay (human hepatocytes); assay type: in vitro ADME; conditions: human hepatocytes; scaled hepatic clearance divided by liver blood flow (well-stirred model, fu assumed unity)
In short: (§1)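 Compound at 1 μM (0.1% DMSO) was incubated with cryopreserved pooled human hepatocytes, 1×10^6 cells/mL in Krebs-Henseleit buffer, at 37 °C, sampled up to 240 min. Parent depletion by LC-MS/MS; half-life from first-order decay gave CLint, scaled to hepatic clearance by well-stirred model (fu assumed 1) and extraction ratio.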

[1] = Hepatocytes stability assay (human hepatocytes); assay type: in vitro ADME; conditions: both sexes, human, cryopreserved hepatocytes, cryopreserved human hepatocytes (pool of 50 mixed gender); 1 μM test compound; 1×10^6 cell/mL; 37 degrees C; read-out: CLint (μL/min/million cells)
In short: as §1

[2] = target: T1, human orexin-2 receptor (OX2R) (Homo sapiens, UniProt O43614); assay: Human OX2R IP1 assay; assay type: cell-based; conditions: T-Rex CHO cells stably overexpressing human OX2R; IP1 accumulation; 1 hr at 37 degrees C; mean EC50
T1 construct: expressed in transfected cells
T1 sequence (O43614 1-444): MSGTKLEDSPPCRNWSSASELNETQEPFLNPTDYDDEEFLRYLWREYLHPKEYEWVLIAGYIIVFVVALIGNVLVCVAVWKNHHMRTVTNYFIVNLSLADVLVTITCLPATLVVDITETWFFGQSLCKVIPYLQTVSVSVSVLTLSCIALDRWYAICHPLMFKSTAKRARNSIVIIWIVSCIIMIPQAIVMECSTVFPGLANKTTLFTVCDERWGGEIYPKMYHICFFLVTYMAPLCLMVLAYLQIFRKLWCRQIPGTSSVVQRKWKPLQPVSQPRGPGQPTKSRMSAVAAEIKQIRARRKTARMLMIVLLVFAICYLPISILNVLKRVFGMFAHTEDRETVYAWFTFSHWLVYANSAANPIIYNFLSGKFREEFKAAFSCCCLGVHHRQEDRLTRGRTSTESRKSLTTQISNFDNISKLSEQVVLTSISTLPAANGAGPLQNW
In short: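 T-Rex CHO cells stably expressing human OX2R, doxycycline-induced (1 μg/mL) overnight, treated with compounds 1 h at 37 °C in pH 7.4 buffer with 50 mM LiCl. IP1 accumulation read by HTRF competitive immunoassay after 1 h at room temperature; agonist EC50 reported as mean ± S.E.M.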

Row | Extraction Ratio (ER) (human hepatocytes) | hepatocyte CLint at 1 μM [1] [µL/min/1e6 cells] | EC50 [2] [nM] | SMILES
1 | <0.22 | < 1.9 | < 10 | Cc1ncnc2c1[C@H]1CC[C@H](CC1)OCC1[C@@H](NS(C)(=O)=O)CCCN1C(=O)CO2 (stereo in doubt) [Compound 27]
2 | 0.42 | 4.8 | < 10 | O=C1COc2ncccc2[C@H]2CC[C@H](CC2)OCC2[C@@H](NS(=O)(=O)C(F)(F)F)CCCN12 (stereo in doubt) [Compound 91]
3 | <0.22 | < 1.9 | < 10 | Cc1ccnc2c1[C@H]1CC[C@H](CC1)OCC1[C@@H](NS(=O)(=O)C(F)(F)F)CCN1C(=O)CO2 (stereo in doubt) [Compound 94]
4 | 0.33 | 3.3 | < 10 | O=C1COc2cccc(F)c2[C@H]2CC[C@H](CC2)OCC2[C@@H](NS(=O)(=O)C(F)(F)F)CCCN12 (stereo in doubt) [Compound 95]
5 | <0.22 | < 1.4 | < 10 | O=C1COc2nccnc2[C@H]2CC[C@H](CC2)OCC2[C@@H](NS(=O)(=O)C(F)(F)F)CCCN12 (stereo in doubt) [Compound 98]
6 | <0.22 | < 1.4 | < 10 | Cc1ncnc2c1[C@H]1CC[C@H](CC1)OCC1[C@@H](NS(=O)(=O)C(F)(F)F)CCCN1C(=O)CO2 (stereo in doubt) [Compound 99]
7 | 0.274 | 2.5 | < 10 | O=C1COc2ccccc2[C@H]2CC[C@H](CC2)OCC2[C@@H](NS(=O)(=O)C(F)(F)F)CCN12 (stereo in doubt) [Compound 100]
8 | 0.80 | 27 | < 10 | Cc1cccc2c1[C@H]1CC[C@H](CC1)OC[C@H]1[C@@H](NS(C)(=O)=O)CCN1C(=O)CO2 [Compound 20]
9 | 0.70 | 15 | < 10 | CC(C)S(=O)(=O)N[C@H]1CCN2C(=O)COc3c(F)cc(F)cc3[C@H]3CC[C@H](CC3)OC[C@@H]12 [Compound 29]
10 | 0.92 | 76 | < 10 | COC(=O)N1CCC[C@H](NS(C)(=O)=O)[C@@H]1CO[C@H]1CC[C@@H](c2ccccc2)CC1 [Reference Compound A, methyl (2R,3S)-3-((methylsulfonyl)amino)-2-(((cis-4-phenylcyclohexyl)oxy)methyl)-piperidine-l-carboxylate, reference compound]
11 | 0.19 | 1.5 | 10 to 1000 | CC(C)(O)C(=O)N1CC[C@H](NS(C)(=O)=O)[C@@H]1Cc1cccc(-c2cc(F)cc(F)c2)c1F [Reference Compound B, N-((2S,3S)-1-(2-hydroxy-2-methylpropanoy1)-2-((2,3′,5′-trifluorobipheny1-3-yl)methyl)pyrrolidin-3-yl)methanesulfonamide, reference compound]
